Data reported in US20140329854A1, “NOVEL HETEROCYCLIC COMPOUNDS USEFUL IN SIRTUIN BINDING AND MODULATION” (SMB Innovation, priority 2011, published 2014).
In brackets after ≈: the same amount, converted by molar mass. Read-outs that look alike come from different tables or passages of the source.

Assays:
SIRT1 = molecular target: T1, SIRT1 (Homo sapiens, UniProt Q96EB6); test: CISBIO HTRF SIRT1 assay of SIRT1 peptide deacetylation, modified by excluding NAD+; type: biochemical; conditions: for Modulation of SIRT1 deacetylating activity (in words): dose response, FIGS. 1-5
T1 construct: purchased Cisbio Bioassays
T1 sequence (Q96EB6 1-747): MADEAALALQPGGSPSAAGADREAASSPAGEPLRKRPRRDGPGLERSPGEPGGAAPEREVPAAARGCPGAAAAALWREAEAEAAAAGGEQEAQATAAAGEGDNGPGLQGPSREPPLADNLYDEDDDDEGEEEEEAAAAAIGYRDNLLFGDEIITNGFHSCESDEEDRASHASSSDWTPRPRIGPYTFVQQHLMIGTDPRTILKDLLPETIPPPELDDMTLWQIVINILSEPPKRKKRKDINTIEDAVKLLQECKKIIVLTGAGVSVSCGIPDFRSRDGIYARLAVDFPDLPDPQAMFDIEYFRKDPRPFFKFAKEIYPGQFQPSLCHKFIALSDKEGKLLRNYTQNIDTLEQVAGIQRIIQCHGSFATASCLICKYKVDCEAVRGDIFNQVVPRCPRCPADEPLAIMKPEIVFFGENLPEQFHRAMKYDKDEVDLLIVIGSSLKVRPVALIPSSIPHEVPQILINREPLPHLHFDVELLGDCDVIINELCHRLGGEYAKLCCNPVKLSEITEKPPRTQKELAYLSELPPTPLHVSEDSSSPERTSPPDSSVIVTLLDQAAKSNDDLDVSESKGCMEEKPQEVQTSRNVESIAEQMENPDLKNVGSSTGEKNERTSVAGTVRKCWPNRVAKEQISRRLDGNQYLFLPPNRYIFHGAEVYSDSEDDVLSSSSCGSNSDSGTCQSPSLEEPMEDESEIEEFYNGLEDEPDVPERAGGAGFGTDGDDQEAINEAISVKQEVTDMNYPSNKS
Procedure: Generally, the CISBIO HTRF® fluorescence enzyme titration assay (Cisbio Bioassays, Cisbio, 135 South Road, Bedford, Mass. 01730, USA) has provided information on inhibition and/or activation of SIRT1 deacetylation of a substrate peptide d2 containing a single acetylated lysine residue and a fluorescence probe/quencher. IC50 and AC50 values have been obtained. The assay was performed in microtiter wells and involved an enzymatic step, wherein 2 μL of the substrate peptide (6 nM) is incubated with 2 μL of SIRT1 enzyme (2.5 ng) and 2 μL of compound solution in DMSO and water. Reaction with anti-acetyl cryptate produces a FRET signal giving maximum signal when no SIRT1 reaction can be detected. The detection step involves quantification of the deacetylation process using an anti-acetyl MAb labeled with Eu^3+ cryptate. The assay was modified by excluding the NAD+ cofactor and using nicotinamide as inhibition control and the compound SRT1720 as activation control. SRT 1720 is described as a SIRT1 activating compound in Pillarisetti, S. (2008).
Protocol for inhibition/activation assay:
After adding all enzymatic step ingredients the mixture is incubated at room temperature at 30 to 60 min. Then the detection reactant is added and incubated at room temperature for 5 hours and on to produce a signal. The fluorescence readout is given as percentage of signal produced with no enzyme reaction.
The cryptate is excited at 337 nm and the fluorescence is measured at 590 nm (cryptate emission wavelength) and 665 nm (d2 emission wavelength). A ratio is calculated (665/590 nm) for each well.
The figures show percentage fluorescence as a function of Log C (log of compound concentration in μM).

[1] = Measured partition coefficients (MlogD7.4, logP11); type: physicochemical
Procedure: Physical properties tPSA and ClogP (calculated lipophilicity octanol/water) were calculated using ChemDraw. Additionally, M log D7.4 (measured partition coefficient at pH 7.4) and log P11 (measured partition coefficient at pH 11) were measured, and all data are shown in Table 7.

[2] = Kinetic aqueous solubility; type: physicochemical; conditions: phosphate buffer, pH 7.4, aqueous buffer, kinetic from dmso stock; read-out: Measured kinetic solubility
[3] = Metabolic stability in rat hepatocytes; type: in vitro ADME; conditions: rat hepatocytes, hepatic intrinsic clearance
Procedure: (§1) Stability of the six compounds in the presence of a drug metabolizing system such as human and rat hepatocytes was measured. Data were reported from the CRO in the format of hepatic intrinsic clearance (CLint) in mL/min/kg. These CLint data were converted using the well-stirred equation
(§2) to a whole body clearance (CLh, hepatic clearance), which is more directly physiologically interpreted (Qh, hepatic blood flow rate, mL/min/kg).

rat hepatocytes = test: Metabolic stability in rat hepatocytes; type: in vitro ADME; conditions: for % Qh (rat): CLh as % of hepatic blood flow; for % Qh (rat) / rat CLh: rat Qh = 55 mL/min/kg; for rat CLh: hepatic clearance from CLint by well-stirred equation; for rat CLint: rat hepatocytes, hepatic intrinsic clearance
Procedure: as §1, §2

[4] = Metabolic stability in human hepatocytes; type: in vitro ADME; conditions: human hepatocytes, hepatic intrinsic clearance; read-out: hu CLint
Procedure: as §1, §2

human hepatocytes = test: Metabolic stability in human hepatocytes; type: in vitro ADME; conditions: for % Qh (human): CLh as % of hepatic blood flow; for % Qh (human) / hu CLh: human Qh = 21 mL/min/kg; for hu CLh: hepatic clearance from CLint by well-stirred equation; for hu CLint: human hepatocytes, hepatic intrinsic clearance
Procedure: as §1, §2

[5] = tested on: human and rat hepatocytes; test: Stability in cryopreserved hepatocytes (FIG. 7), verbal summary; type: in vitro ADME; conditions: 90 minutes
Procedure: as §1

MDCK-MDR1 cells = tested on: MDCK-MDR1 cells
Description: MDR1 is the nomenclature for the major efflux transporter P-glycoprotein (P-gp), which is expressed at important anatomical barriers such as blood-brain, small intestine, and tumor cells. The MDCK-MDR model is a polarized cell model over expressing P-gp (i.e. P-gp is expressed on the Apical, or gut lumen, side of the cell) that is capable of actively effluxing small molecule substrates in the B to A direction. […] The compounds were run bidirectionally (Compound added to apical side and flux measured of compound appearing on the basolateral, or blood, side; compound added on basolateral side and flux of compound to apical side measured).

[6] = Solubility in DMSO stock solution; conditions: solubility in DMSO before further dilution with water to 1% DMSO
[7] = tested on: CYP1A2, CYP2C9, CYP2C19, CYP2D6, CYP3A4; test: CYP inhibition in human liver microsomes
[8] = tested on: CYP1A2, 2C9, 2C19, 2D6, and 3A4; conditions: microsomes
[9] = measured partition coefficient at pH 7.4
[10] = SIRT1 activation, no NAD+ cofactor, single experiment of FIGS. 1-4, read-out: AC50 in μM, n = 1

| % Qh (rat) (rat hepatocytes) | rat CLh (rat hepatocytes) | % Qh (human) (human hepatocytes) | hu CLh (human hepatocytes) | Clearance in hepatocytes (in words) [5] | Stability in hepatocytes (in words) [5] | Cell permeability (in words) (MDCK-MDR1 cells) | P-gp mediated efflux (in words) (MDCK-MDR1 cells) | Concentration of compound in DMSO stock solution [6] | AC50 (SIRT1; [10]) | Modulation of SIRT1 deacetylating activity (in words) (SIRT1) | MlogD7.4 [1, 9] | rat CLint (rat hepatocytes) | hu CLint (human hepatocytes) | IC50 [8] | SMILES | also measured |
| --- | --- | --- | --- | --- | --- | --- | --- | --- | --- | --- | --- | --- | --- | --- | --- | --- |
| 49.1% | 27.0 mL/min/kg | 79.8% | 16.8 mL/min/kg | relatively low clearance | good stability | moderate cell permeability | no P-gp mediated efflux | 20 mM | – | – | – | – | – | – | NC(=O)c1ccc(C(=O)Nc2ccc(O)cc2O)nc1 [Compound 3, 2-N(2,4-dihydroxyphenyl)pyridine-2,5-dicarboxamide] | AC50 (SIRT1; average AC50 values, n = 6, read-out: AC50): 10 µM; logD [1, 9]: 0.8; logP ([1]; measured partition coefficient at pH 11, read-out: MlogP11): 1; solubility kinetic [2]: 14 to 55 µg/mL (≈ 51.2 to 201 µM); CLint scaled [3]: 53 mL/min/kg; CLint scaled [4]: 83 mL/min/kg; IC50 [7]: > 5 µM |
| 21.4% | 11.8 mL/min/kg | 36.4% | 7.6 mL/min/kg | relatively low clearance | good stability | moderate cell permeability | no P-gp mediated efflux | 200 mM | 112 µM | clear activation | 0.3 | 15 mL/min/kg | 12 mL/min/kg | > 5 µM | NC(=O)c1ccc(C(=O)Nc2ccc(O)cc2O)cn1 [Compound 9, 5-N(2,4-dihydroxyphenyl)pyridine-2,5-dicarboxamide] | – |
| 70.7% | 38.9 mL/min/kg | 60.4% | 12.7 mL/min/kg | relatively low clearance | good stability | moderate cell permeability | no P-gp mediated efflux | 20 mM | 3.3 µM | clear activation | 1.6 | 133 mL/min/kg | 32 mL/min/kg | > 5 µM | NC(=O)c1ccc(C(=O)Nc2ccc(O)c3ccccc23)cn1 [Compound 11, 5-N(4-hydroxy-1-naphthyl)pyridine-2,5-dicarboxamide] | AC50 (SIRT1; SIRT1 activation, no NAD+ cofactor, average n = 3, read-out: AC50 in μM, average, n = 3): 114 µM |
